Where “and” joins values, the source holds several entries; their conditions need not be identical. Identical values can stand only once. Counter-ions that a name gives are not always drawn.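 These data come from cells grown in 96-well plates and exposed to compound for 48 hours at five concentrations. Abbreviation: GI50, concentration required for 50% inhibition of growth.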 Calls of active or inactive are those of the source. Cut-off read from the data, not from the text of the source: active = GI50 up to about 1.1 µM and inactive = higher.
Experiments:
Test in all cases: DTP human tumour cell line panel, 48 h
NCI/ADR-RES = tested on: NCI/ADR-RES
NCI-H522 = tested on: NCI-H522
Malme-3M = tested on: Malme-3M
CCRF-CEM = tested on: CCRF-CEM
K562 = tested on: K562
SK-MEL-2 = tested on: SK-MEL-2
HCT-15 = tested on: HCT-15
MCF7 = tested on: MCF7
SN12C = tested on: SN12C
NCI-H460 = tested on: NCI-H460
BT-549 = tested on: BT-549
A498 = tested on: A498
SK-OV-3 = tested on: SK-OV-3
OVCAR-8 = tested on: OVCAR-8
TK-10 = tested on: TK-10
MOLT-4 = tested on: MOLT-4
A549 = tested on: A549
MDA-N = tested on: MDA-N
T47D = tested on: T47D

SMILES	GI50 (NCI/ADR-RES)	GI50 (NCI-H522)	GI50 (Malme-3M)	GI50 (CCRF-CEM)	GI50 (K562)	GI50 (SK-MEL-2)	GI50 (HCT-15)	GI50 (MCF7)	GI50 (SN12C)	GI50 (NCI-H460)	GI50 (BT-549)	GI50 (A498)	GI50 (SK-OV-3)	GI50 (OVCAR-8)	GI50 (TK-10)	GI50 (MOLT-4)	GI50 (A549)	GI50 (MDA-N)	GI50 (T47D)
CC(C)CC[C@H](O)[C@@H](C)[C@H]1[C@@H](OC2OC(C)C(O)C(O)C2O)C[C@H]2[C@@H]3CC=C4C[C@@H](O)CC[C@]4(C)[C@H]3[C@@H](O)C[C@]12C (stereo not given in full)	> 92.9 µM (inactive)	3.69 µM (inactive)	1.85 µM (inactive)	0.25 µM (active)	0.235 µM (active)	> 27 µM (inactive)	> 56.1 µM	0.656 µM (active)	> 100 µM (inactive)	0.241 µM (active)	0.491 µM (active)	3.46 µM (inactive)	> 100 µM (inactive)	> 100 µM (inactive)	0.692 µM (active)	0.0904 µM (active)	–	–	–
Oc1nc(S)nc2nc3c4cccnc4c4ccccc4c3nc12	–	86.3 µM (inactive)	> 100 µM (inactive)	74.6 µM (inactive)	–	–	> 100 µM	88.3 µM (inactive)	> 100 µM (inactive)	57.3 µM (inactive)	> 100 µM (inactive)	> 100 µM (inactive)	> 100 µM (inactive)	> 100 µM (inactive)	> 100 µM (inactive)	> 100 µM (inactive)	> 100 µM (inactive)	> 100 µM (inactive)	–
O=c1[nH]c(=O)n(C2OC(CO)C(O)C2O)c2ccsc12 (stereo not given)	> 100 µM (inactive)	> 100 µM (inactive)	> 100 µM (inactive)	> 100 µM (inactive)	> 100 µM (inactive)	> 100 µM (inactive)	> 100 µM	> 100 µM (inactive)	> 100 µM (inactive)	> 100 µM (inactive)	> 100 µM (inactive)	> 100 µM (inactive)	–	> 10 µM (inactive)	> 100 µM (inactive)	> 100 µM (inactive)	> 100 µM (inactive)	> 100 µM (inactive)	–
O=C(OCc1nc2ccc(Br)cc2c(=O)n1-c1ccccc1)c1ccccc1O	–	38.1 µM (inactive)	> 100 µM (inactive)	48.3 µM (inactive)	54.7 µM (inactive)	90.4 µM (inactive)	–	–	> 100 µM (inactive)	> 100 µM (inactive)	–	58.3 µM (inactive)	> 100 µM (inactive)	> 100 µM (inactive)	> 100 µM (inactive)	37.9 µM (inactive)	86.5 µM (inactive)	–	–
COc1cc(/C=C(\NC(=O)c2ccccc2)c2nc3c(O)nc(S)nc3[nH]2)cc(OC)c1OC	–	> 100 µM (inactive)	> 100 µM (inactive)	> 100 µM (inactive)	> 100 µM (inactive)	> 100 µM (inactive)	> 100 µM	–	> 100 µM (inactive)	–	–	–	> 100 µM (inactive)	> 100 µM (inactive)	> 100 µM (inactive)	> 100 µM (inactive)	> 100 µM (inactive)	–	–
Cc1cc(C)c(N)c(CO)c1	> 100 µM (inactive)	–	> 100 µM (inactive)	> 100 µM (inactive)	59.8 µM (inactive) and 67.5 µM (inactive)	> 100 µM (inactive)	> 100 µM	–	> 100 µM (inactive)	46.7 µM (inactive) and 34 µM (inactive)	> 100 µM (inactive)	–	> 100 µM (inactive)	> 100 µM (inactive)	–	> 100 µM (inactive)	42.8 µM (inactive) and 73.6 µM (inactive)	> 100 µM (inactive)	–
CC1(C)C(/C=N\O)=[N+]([O-])C(C)(C)N1O	> 100 µM (inactive)	–	> 100 µM (inactive)	89.7 µM (inactive)	> 100 µM (inactive)	> 100 µM (inactive)	> 100 µM	> 100 µM (inactive)	> 100 µM (inactive)	> 100 µM (inactive)	–	–	> 100 µM (inactive)	> 100 µM (inactive)	> 100 µM (inactive)	–	> 100 µM (inactive)	52.7 µM (inactive)	> 100 µM (inactive)
Cc1ccc(C(=O)/C=C/N2CCN(c3cccc(C(F)(F)F)c3)CC2)cc1	17.9 µM (inactive)	17.5 µM (inactive)	18.6 µM (inactive)	–	18.7 µM (inactive)	18.6 µM (inactive)	15.6 µM	18 µM (inactive)	18.5 µM (inactive)	21.7 µM (inactive)	–	15.8 µM (inactive)	35.1 µM (inactive)	17.5 µM (inactive)	25.3 µM (inactive)	15.1 µM (inactive)	22.9 µM (inactive)	–	20.1 µM (inactive)
CCN(CC)CC(O)C1CCC(c2ccccc2)CC1 (stereo not given)	43.2 µM (inactive)	16.2 µM (inactive)	16.3 µM (inactive)	27.4 µM (inactive)	26.8 µM (inactive)	16.7 µM (inactive)	13.2 µM	22.5 µM (inactive)	39.7 µM (inactive)	25.6 µM (inactive)	–	14.4 µM (inactive)	16.1 µM (inactive)	16.3 µM (inactive)	15.3 µM (inactive)	43.8 µM (inactive)	32.6 µM (inactive)	16.3 µM (inactive)	26.9 µM (inactive)
CC1(C)CC2=C(SC3C=CC=CC3N2)C(=O)C1C(=O)C(N)=O (stereo not given)	> 100 µM (inactive)	72.3 µM (inactive)	–	> 100 µM (inactive)	–	> 100 µM (inactive)	> 100 µM	> 100 µM (inactive)	> 100 µM (inactive)	> 100 µM (inactive)	> 100 µM (inactive)	–	> 100 µM (inactive)	> 100 µM (inactive)	> 100 µM (inactive)	40.4 µM (inactive)	> 100 µM (inactive)	> 100 µM (inactive)	–
Cc1[nH]c(=O)[nH]c(=S)c1C(=O)NC(C)(CO)CO	> 100 µM (inactive)	> 100 µM (inactive)	> 100 µM (inactive)	> 100 µM (inactive)	> 100 µM (inactive)	> 100 µM (inactive)	> 100 µM	> 100 µM (inactive)	> 100 µM (inactive)	> 100 µM (inactive)	–	> 100 µM (inactive)	> 100 µM (inactive)	> 100 µM (inactive)	> 100 µM (inactive)	> 100 µM (inactive)	> 100 µM (inactive)	> 100 µM (inactive)	> 100 µM (inactive)
Cc1ccc(/N=N/c2cc(=O)[nH]c(=O)[nH]2)cc1C	34 µM (inactive)	–	14.4 µM (inactive)	2.2 µM (inactive)	2.79 µM (inactive)	–	2.85 µM	12.3 µM (inactive)	4.74 µM (inactive)	17.2 µM (inactive)	13.7 µM (inactive)	18.4 µM (inactive)	–	14.6 µM (inactive)	19.4 µM (inactive)	3.94 µM (inactive)	18.5 µM (inactive)	12.2 µM (inactive)	–
NCCS [CYSTEAMINE HYDROCHLORIDE]	> 100 µM (inactive)	> 100 µM (inactive)	> 100 µM (inactive)	> 100 µM (inactive)	> 100 µM (inactive)	> 100 µM (inactive)	> 100 µM	> 100 µM (inactive)	> 100 µM (inactive)	> 100 µM (inactive)	–	–	–	> 100 µM (inactive)	> 100 µM (inactive)	> 100 µM (inactive)	> 100 µM (inactive)	> 100 µM (inactive)	> 100 µM (inactive)

— ChEMBL document CHEMBL1201862, “PubChem BioAssay data set” (2004)
